Laboratory results: patent publication US11660319B2, “Compositions comprising bacterial strains” (priority 2017, dated 2023)

Columns and labels:
Class I HDACs = test: Specific HDAC activity analysis, Class I HDACs overall; format: biochemical
Protocol: Specific HDAC inhibition activity was analysed for HDAC1, 2, 3, 4, 5, 6, 9 using fluorogenic assay kits for each type of HDAC (BPS Bioscience, CA). Assays were conducted according to manufacturer's instructions and each sample were performed in replicates. Cell free supernatants were diluted 1 in 10 and exposed to specific HDAC proteins provided in the kit to maintain consistency between methods.
The specific HDAC inhibition profile of the test bacteria strain was investigated. Specific HDAC inhibition assays (BPS Bioscience, CA) were carried out for Class I and Class II HDACs. The ability of the bacterial strain to inhibit HDAC enzymes was compared to butyrate, hexanoic and valeric acid (FIGS. 14 and 15).

HDAC = HDAC inhibition on whole HT-29 cells and HT-29 cell lysate; format: cell-based; settings: HT-29, whole cells or lysate not told apart in the sentence
Protocol: Bacterial culture and cell-free supernatant collection Pure cultures of bacteria were grown anaerobically in YCFA broth until they reached their stationary growth phase. Cultures were centrifuged at 5,000×g for 5 minutes and the cell-free supernatant (CFS) was filtered using a 0.2 μM filter (Millipore, UK). 1 mL aliquots of the CFS were stored at −80° C. until use. Sodium butyrate, hexanoic and valeric acid were obtained from Sigma Aldrich (UK) and suspensions were prepared in YCFA broth.
To investigate which metabolites were responsible for the strain-induced HDAC inhibition, different concentrations of hexanoic acid, valeric acid and sodium butyrate were measured for their HDAC inhibition on whole HT-29 cells and on HT-29 cell lysate.

CCCCC(=O)O [valeric acid]
Inhibition of Class I HDACs (Class I HDACs): class 1 HDAC inhibitor | total HDAC activity, pure substances (HDAC): significant HDAC inhibition | total HDAC activity, pure substances (HDAC; listed as Valeric acid): inhibited
